The NIST ThermoML archive (doi:10.1021/je800110r)
Where “and” joins values, the source holds several entries; their conditions need not be identical. Identical values can stand only once. Numbers after ± are expanded uncertainties.

Details: 293.15 K, Liquid, Vibrating tube method

CCCCCCCCCC [decane]
Details	mass density
4401 kPa	733.2 ± 2 kg/m3
4420 kPa	733.3 ± 2 kg/m3
4439 kPa	733.3 ± 2 kg/m3
4450 kPa	733.5 ± 2 kg/m3
4464 kPa	733.3 ± 2 kg/m3
4478 kPa	733.3 ± 2 kg/m3
4500 kPa	733.3 ± 2 kg/m3
4518 kPa	733.3 ± 2 kg/m3
4530 kPa	733.3 ± 2 kg/m3
4544 kPa	733.3 ± 2 kg/m3
4558 kPa	733.4 ± 2 kg/m3
4571 kPa	733.3 ± 2 kg/m3
4586 kPa	733.3 ± 2 kg/m3
4595 kPa	733.3 ± 2 kg/m3
4616 kPa	733.5 ± 2 kg/m3
4637 kPa	733.4 ± 2 kg/m3
4652 kPa	733.4 ± 2 kg/m3
4671 kPa	733.3 ± 2 kg/m3
4685 kPa	733.6 ± 2 kg/m3
4705 kPa	733.4 ± 2 kg/m3
4728 kPa	733.4 ± 2 kg/m3
4742 kPa	733.5 ± 2 kg/m3
4760 kPa	733.5 ± 2 kg/m3
4773 kPa	733.5 ± 2 kg/m3
4795 kPa	733.7 ± 2 kg/m3
4810 kPa	733.6 ± 2 kg/m3
4831 kPa	733.5 ± 2 kg/m3
4849 kPa	733.6 ± 2 kg/m3
4877 kPa	733.5 ± 2 kg/m3
4901 kPa	733.6 ± 2 kg/m3
4914 kPa	733.7 ± 2 kg/m3
4937 kPa	733.6 ± 2 kg/m3
4953 kPa	733.7 ± 2 kg/m3
4976 kPa	733.7 ± 2 kg/m3
4996 kPa	733.6 ± 2 kg/m3
5014 kPa	733.8 ± 2 kg/m3
5029 kPa	733.7 ± 2 kg/m3
5053 kPa	733.7 ± 2 kg/m3
5076 kPa	733.8 ± 2 kg/m3
5091 kPa	733.8 ± 2 kg/m3
5103 kPa	733.9 ± 2 kg/m3
5127 kPa	733.8 ± 2 kg/m3
5148 kPa	733.7 ± 2 kg/m3
5166 kPa	733.9 ± 2 kg/m3
5187 kPa	733.8 ± 2 kg/m3
5202 kPa	733.8 ± 2 kg/m3
5220 kPa	733.9 ± 2 kg/m3
5234 kPa	733.8 ± 2 kg/m3
5248 kPa	733.9 ± 2 kg/m3
5264 kPa	733.9 ± 2 kg/m3
5278 kPa	733.9 ± 2 kg/m3
5297 kPa	733.8 ± 2 kg/m3
5299 kPa	733.9 ± 2 kg/m3
5304 kPa	733.9 ± 2 kg/m3
5315 kPa	733.9 ± 2 kg/m3
5319 kPa	733.9 ± 2 kg/m3
5329 kPa	733.9 ± 2 kg/m3
5335 kPa	734 ± 2 kg/m3
5346 kPa	734 ± 2 kg/m3
5352 kPa	734 ± 2 kg/m3
5362 kPa	733.9 ± 2 kg/m3
5375 kPa	734 ± 2 kg/m3
5393 kPa	733.9 ± 2 kg/m3
5395 kPa	734 ± 2 kg/m3
5409 kPa	733.9 ± 2 kg/m3
5422 kPa	734 ± 2 kg/m3
5424 kPa	734.1 ± 2 kg/m3
5440 kPa	734 ± 2 kg/m3
5459 kPa	734 ± 2 kg/m3
5475 kPa	734.1 ± 2 kg/m3
5492 kPa	734 ± 2 kg/m3
5508 kPa	734 ± 2 kg/m3
5522 kPa	734 ± 2 kg/m3
5541 kPa	734.1 ± 2 kg/m3
5556 kPa	734.1 ± 2 kg/m3
5570 kPa	734.1 ± 2 kg/m3
5592 kPa	734.1 ± 2 kg/m3
5612 kPa	734.2 ± 2 kg/m3
5626 kPa	734.2 ± 2 kg/m3
5643 kPa	734.2 ± 2 kg/m3
5656 kPa	734.2 ± 2 kg/m3
5676 kPa	734.3 ± 2 kg/m3
5696 kPa	734.2 ± 2 kg/m3
5714 kPa	734.1 ± 2 kg/m3
5734 kPa	734.3 ± 2 kg/m3
5753 kPa	734.2 ± 2 kg/m3
5771 kPa	734.3 ± 2 kg/m3
5792 kPa	734.3 ± 2 kg/m3
5808 kPa	734.4 ± 2 kg/m3
5824 kPa	734.4 ± 2 kg/m3
5839 kPa	734.4 ± 2 kg/m3
5858 kPa	734.4 ± 2 kg/m3
5880 kPa	734.4 ± 2 kg/m3
5902 kPa	734.3 ± 2 kg/m3
5918 kPa	734.4 ± 2 kg/m3
5937 kPa	734.3 ± 2 kg/m3
5957 kPa	734.4 ± 2 kg/m3
5977 kPa	734.5 ± 2 kg/m3
5992 kPa	734.4 ± 2 kg/m3
6012 kPa	734.5 ± 2 kg/m3
6035 kPa	734.5 ± 2 kg/m3
6050 kPa	734.6 ± 2 kg/m3
6077 kPa	734.6 ± 2 kg/m3
6097 kPa	734.6 ± 2 kg/m3
6112 kPa	734.6 ± 2 kg/m3
6135 kPa	734.5 ± 2 kg/m3
6161 kPa	734.6 ± 2 kg/m3
6198 kPa	734.7 ± 2 kg/m3
6243 kPa	734.6 ± 2 kg/m3
6254 kPa	734.6 ± 2 kg/m3
6257 kPa	734.6 ± 2 kg/m3
6259 kPa	734.7 ± 2 kg/m3
6262 kPa	734.6 ± 2 kg/m3
6265 kPa	734.6 ± 2 kg/m3
6266 kPa	734.7 ± 2 kg/m3 and 734.6 ± 2 kg/m3
6267 kPa	734.6 ± 2 kg/m3
6268 kPa	734.6 ± 2 kg/m3
6278 kPa	734.7 ± 2 kg/m3
6299 kPa	734.6 ± 2 kg/m3
6320 kPa	734.6 ± 2 kg/m3
6344 kPa	734.7 ± 2 kg/m3
6362 kPa	734.7 ± 2 kg/m3
6383 kPa	734.7 ± 2 kg/m3
6411 kPa	734.9 ± 2 kg/m3
6436 kPa	734.7 ± 2 kg/m3
6451 kPa	734.7 ± 2 kg/m3
6476 kPa	734.8 ± 2 kg/m3
6502 kPa	734.9 ± 2 kg/m3
6521 kPa	734.8 ± 2 kg/m3
6550 kPa	734.8 ± 2 kg/m3
6573 kPa	734.8 ± 2 kg/m3
6596 kPa	734.8 ± 2 kg/m3
6622 kPa	734.9 ± 2 kg/m3
6642 kPa	734.8 ± 2 kg/m3
6665 kPa	735 ± 2 kg/m3
6692 kPa	734.9 ± 2 kg/m3
6725 kPa	735 ± 2 kg/m3
